Data: patent EP0859230A1, “Detection of analytes using electrochemistry” (priority 1997, dated 1998)

How the values were obtained:
Antigentamycin = experiment: End-point competitive microtiter plate assay with gentamycin-GOD, hydrogen peroxide peak measured in flow cell; format: binding; conditions: gentamycin concentrations as low as 5 ppb; 1:10 000 dilution of gentamycin-GOD conjugate
Experimental: The immunological reaction step is performed in a microtiter plate. Using GOD as the enzyme label, the final microtiter well solution will contain hydrogen peroxide, the amount of which is inversely proportional to the amount of free gentamycin present in the sample under uniform conditions (competitive assay approach). This solution is pumped through the flow cell yielding a current peak, the magnitude of which is directly proportional to the amount of hydrogen peroxide present. Since no enzyme label is present in the final solution, no further hydrogen peroxide generation occurs after removal of solution from the microtiter well, thus current peaks, as opposed to current steps are observed on liquid passage through the flow cell.
Microtiter plates were coated in carbonate/bicarbonate buffer pH 9.6 for 1 hour at 37°C, then washed and blocked with 0.5% w/v gelatin in PBS buffer pH 7.4. Plates were either used directly or stored at 4°C until required.
Primary incubations with gentamycin-GOD, with or without free gentamycin, and in milk or buffer (PBS pH 7.4) were performed for 1 hour at 37°C. Gentamycin-GOD concentrations were varied between 1:1000 and 1:20 000. […]
After a given time period for substrate conversion, 150 µl of solution was pumped through the flow cell using a peristaltic pump set at a constant flow rate of 300 µl/min. Responses were measured as peak heights in nA or mA. […]

[1] = tested on: monoclonal anti-gentamycin antibody; experiment: Competitive flow-cell electrochemical immunoassay: free gentamycin vs gentamycin-GOD conjugate in milk; format: binding
Experimental: Strips of nitrocellulose were cut to the exact size of 0.4 x 0.9 cm. Strips were soaked in a solution of 5 µg/ml of monoclonal anti-gentamycin antibody in PBS buffer pH 7.4, for 1 hour at ambient temperature.
After incubation, strips were blocked in a 2% w/v BSA solution in PBS(pH 7.4) for 1 hour at ambient temperature.
Individual strips were removed from the blocking solution and mounted onto the working electrode surface, thus creating a complete sensor card.
Sensor cards were mounted into the flow cell, the strip of nitrocellulose being held in place by a rubber seal, used to prevent leakage during operation of the flow cell device.
One ml samples of milk were aliquoted, to which were added 25 µl of a: 1:1000 (A), 1:2000 (B) or 1:2500 (C) dilution of gentamycin-GOD conjugate (prepared with state of the art procedures).
Free gentamycin was then added to each milk sample, yielding solutions having gentamycin concentrations varying between 0 and 1000 ppb.
A pumping device was connected to the flow cell and the prepared milk samples were each tested with a new sensor card mounted in place.
The flow rate through the system was adjusted so that the complete milk sample passed through the system over a 3 minute time period. A 1 minute wash step was then performed with 0.1 % w/v Tween in 0.1M PBS (pH 7.4). Immediately after each wash step, 0.5M glucose in 0.1M PBS/ 0.1M KCl was passed through the flow cell and the electrochemical responses generated were recorded both as absolute values and as initial response-time velocities in nA/sec.
A 1:10 dilution of the MoAb stock solution was used to coat the nitro-cellulose strips. Gentamycin-glucose oxidase conjugate concentrations were varied from 1:4000 (exp.A) to 1:8000 (exp.B) to 1:10 000 (exp. C).

[2] = tested on: PBP (penicillin binding protein); experiment: Competitive inhibition assay: penicillin vs 7-ACA-GOD on PBP-coated nitrocellulose strips, amperometric detection in flow cell; conditions: CV in percent in brackets; for Velocity (nA sec^1) Mean: over 200 sec; for Absolute response (µA) Mean (CV): over 500 sec
Experimental: Strips of nitrocellulose membrane were cut to the exact size of 0.4 x 0.9 cm. Strips were soaked in a solution of 5 mg/ml PBP (penicillin binding protein) in buffer (0.1M phosphate buffered saline (PBS), pH 7.4). The strips were left to soak for 1 hour at ambient temperature.
After incubation, strips were blocked in a 2% w/v bovine serum albumin (BSA) solution in PBS buffer (pH 7.4) for 1 hour at ambient temperature.
Individual strips were removed from the blocking solution and incubated for 5 minutes at 64°C in a 1:2000 dilution of 7-ACA-GOD stock solution in whole milk with or without free analyte (penicillin G) present.
Strips were washed for 20 seconds in PBS and placed onto the working electrode of the screen-printed sensor card.
The card was mounted into the flow cell or flowing liquid system and a 0.1M PBS solution was introduced, pumped at a constant rate through the flow cell. The working electrode was poised at a potential of +350 mV and the system allowed to achieve electrochemical equilibrium. A 0.1M glucose solution in 0.1M PBS/0.1M KCl was then pumped into the system. The flow was halted after 60 seconds. The electrochemical response of the system was monitored throughout this period.
Results can be expressed as total current increase in µA over a given time interval or can be interpreted as current increase per unit time (µA/sec).
Nitro-cellulose strips were prepared in two separate batches. […] Responses are also recorded as 'velocities' whereby the maximum current versus time slope is measured during the period of glucose flow across the working electrode surface (expressed as nA/sec). Results are also expressed as a percentage of the signal of the zero ppb penicillin positive control, that is, the zero inhibited response that therefore yields a 100% response value.

[3] = Exp. A (conjugate 1:4000), gentamycin 10 ppb in milk, duplicate
[4] = Exp. A (conjugate 1:4000), gentamycin 100 ppb in milk, duplicate
[5] = Exp. A (conjugate 1:4000), gentamycin 1000 ppb in milk, duplicate
[6] = Exp. B (conjugate 1:8000), gentamycin 10 ppb in milk, duplicate
[7] = Exp. B (conjugate 1:8000), gentamycin 100 ppb in milk, duplicate
[8] = Exp. C (conjugate 1:10 000), gentamycin 10 ppb in milk, triplicate
[9] = Exp. C (conjugate 1:10 000), gentamycin 100 ppb in milk, triplicate
[10] = Batch 1, penicillin 100 ppb in whole milk, n=2
[11] = Batch 2, penicillin 10 ppb in whole milk, n=3
[12] = Batch 2, penicillin 100 ppb in whole milk, n=2
[13] = Overall, penicillin 100 ppb in whole milk, n=4

With gentamycin the “inhibition of the positive signal” value (Antigentamycin) was “Considerable inhibition”, the “Absolute response (µA) Mean value” [1, 3] was 3217 µA and the “Velocity (nA sec^1) Mean value” [1, 3] was 36.0 nA sec^1. The “Absolute response (µA) Mean value” [1, 4] was 3050 µA, the “Velocity (nA sec^1) Mean value” [1, 4] was 22.7 nA sec^1 and the “Absolute response (µA) Mean value” [1, 5] was 1350 µA. For the same molecule, the “Velocity (nA sec^1) Mean value” [1, 5] was 8.7 nA sec^1, the “Absolute response (µA) Mean value” [1, 6] was 2438 µA and the “Velocity (nA sec^1) Mean value” [1, 6] was 18.0 nA sec^1. The “Absolute response (µA) Mean value” [1, 7] was 2025 µA, the “Velocity (nA sec^1) Mean value” [1, 7] was 14.3 nA sec^1 and the “Absolute response (µA) Mean value” [1, 8] was 1868 µA. For the same molecule, the “Velocity (nA sec^1) Mean value” [1, 8] was 10.8 nA sec^1, the “Absolute response (µA) Mean value” [1, 9] was 1333 µA and the “Velocity (nA sec^1) Mean value” [1, 9] was 6.0 nA sec^1.
With `CC1(C)S[C@@H]2[C@H](NC(=O)Cc3ccccc3)C(=O)N2[C@H]1C(=O)O` [Penicillin, penicillin G] the “Velocity (nA sec^1) Mean” value [2, 10] was 0.209 (12.6) nA sec^1, the “Absolute response (µA) Mean (CV)” value [2, 10] was 0.087 (35.8) µA and the “Velocity (nA sec^1) Mean” value [2, 11] was 0.151 (32.0) nA sec^1. For the same molecule, the “Absolute response (µA) Mean (CV)” value [2, 11] was 0.064 (17.7) µA, the “Velocity (nA sec^1) Mean” value [2, 12] was 0.062 (5.7) nA sec^1 and the “Absolute response (µA) Mean (CV)” value [2, 12] was 0.026 (21.8) µA. For the same molecule, the “Absolute response (µA) Mean (CV)” value ([2]; Overall (batch 1 + batch 2), penicillin 10 ppb in whole milk, n=3) was 0.064 (17.7) µA, the “Velocity (nA sec^1) Mean” value ([2]; Overall, penicillin 10 ppb in whole milk, n=3) was 0.151 (32.0) nA sec^1 and the “Velocity (nA sec^1) Mean” value [2, 13] was 0.135 (64.9) nA sec^1. For the same molecule, the “Absolute response (µA) Mean (CV)” value [2, 13] was 0.057 (70.2) µA.
